# Earlier results, collected in patent publication US20220202720A1, “SUSTAINED RELEASE C[…] AND METHOD OF PREPARATION THEREOF” (PHARMATHEN S.A., priority 2019, published 2022).
# Target: recombinant μ-opioid receptor (Homo sapiens, UniProt P35372)
# Sequence (P35372 whole entry, species assumed): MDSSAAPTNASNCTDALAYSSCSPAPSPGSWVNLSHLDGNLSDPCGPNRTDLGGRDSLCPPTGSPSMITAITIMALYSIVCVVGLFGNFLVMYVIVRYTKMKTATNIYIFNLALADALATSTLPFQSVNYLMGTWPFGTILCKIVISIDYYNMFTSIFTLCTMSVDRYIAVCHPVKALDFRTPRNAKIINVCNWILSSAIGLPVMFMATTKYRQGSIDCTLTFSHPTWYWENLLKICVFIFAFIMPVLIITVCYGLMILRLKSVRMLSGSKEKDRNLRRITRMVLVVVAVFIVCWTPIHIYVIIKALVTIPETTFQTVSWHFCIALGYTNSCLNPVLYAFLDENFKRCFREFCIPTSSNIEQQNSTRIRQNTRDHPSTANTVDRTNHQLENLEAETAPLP
smiles,measurement,value
CC[C@@H](c1cccc(O)c1)[C@@H](C)CN(C)C [Tapentadol],reduced affinity to recombinant μ-opioid receptor compared to morphine,18 times
